Results reported in publication PMC9506480, “Synthesis and Evaluation of Antiproliferative Activity, Topoisomerase IIα Inhibition, DNA Binding and Non-Clinical Toxicity of New Acridine–Thiosemicarbazone Derivatives” (Pharmaceuticals, 2022).

Key:
[1] = test system: HepG2 (human hepatocellular carcinoma); parameters: method as in Silva et al. (2018) [67]; conditions: ref Silva et al. (2018) [67]; cited from earlier work
[2] = test system: B16-F10 (murine melanoma); parameters: method as in Silva et al. (2018) [67]; conditions: ref Silva et al. (2018) [67]; cited from earlier work
[3] = test system: MRC-5 (human lung fibroblast); parameters: method as in Silva et al. (2018) [67]; conditions: ref Silva et al. (2018) [67]; cited from earlier work
[4] = test system: HCT116 (human colon carcinoma); parameters: method as in Silva et al. (2018) [67]; conditions: ref Silva et al. (2018) [67]; cited from earlier work
CT DNA = CT DNA binding by UV–Vis absorption spectroscopy; parameters: species or system calf; conditions: compound 40 µM, CT DNA 0 to 60 µM, Tris-HCl pH 7.4
Experimental: Absorption spectroscopy is a convenient and simple method for probing the binding of small molecules to DNA. The interaction of selected acridine–thiosemicarbazone derivatives with CT DNA was studied in the 220–500 nm region. Binding constants (Kb) were calculated from [DNA]/(Ɛa − Ɛf) versus [DNA], in which Kb is given by the ratio of slope to the intercept. […] For this, the regions chosen were the ones with the highest absorption intensity above 300 nm, due to the lower interference in DNA absorption in this region (ESI, Figures S50 and S53).
The concentration of the calf thymus, Type I, fibers (CT DNA), was determined based on the extinction coefficient of the absorbance at 260 nm (6600 L mol^−1 cm^−1). All compounds were dissolved in methanol (HPLC grade) at a concentration of 1 mmol L^−1 (stock solution). Working solutions were prepared by diluting the stock solution using Tris-HCl buffer (pH 7.4), with concentrations of 40 µmol L^−1. Under the optimized concentration, the compounds were titered with increasing concentrations of CT DNA (5 to 60 µmol L^−1). After shaking the system and incubating at room temperature for 10 min, the measurements were recorded using a JASCO J818 spectropolarimeter in the range of 220 to 500 nm at 298 K. The intrinsic bond constant (Kb) was obtained by adjusting the data according to the equation below:[DNA]/(Ɛa − Ɛf) = [DNA]/(Ɛb − Ɛf) + 1/[Kb (Ɛb − Ɛf)] where Ɛa, Ɛb and Ɛf are the apparent extinction coefficient of the compounds, the extinction coefficient of the compounds found in their […] and the extinction coefficient of the compounds when fully DNA-bound, respectively. The graph of [DNA]/(Ɛa − Ɛf) versus [DNA] was used to obtain the Kb from the ratio between the slope and the intercept, as previously described in the literature. Binding data were obtained using SigmaPlot 10.0 software. The study of possible DNA denaturation using methanol–water solutions was evaluated up to the maximum final concentration of methanol in the assays (6%) (ESI, Figures S50 and S53).

SMILES | IC50 [1] [µM] | IC50 [2] [µM] | IC50 [3] [µM] | IC50 [4] [µM] | Hypochromic (%) (CT DNA)
O=c1[nH]cc(F)c(=O)[nH]1 [5-FU, 5-fluorouracil] | 1.3 | 3.5 | 57.9 | 4.1 | 
CC[n+]1c(-c2ccccc2)c2cc(N)ccc2c2ccc(N)cc21 [EtBr, ethidium bromide, reference compound] |  |  |  |  | 35.15
